Data from PubChem BioAssay (NCI).
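96-well plates; 48 h exposure; 5 concentrations. Endpoints by linear interpolation between flanking doses. Not reached: highest tested concentration assigned. At the GI50, growth is halved. TGI is the concentration that stops growth completely.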

What was measured:
Assay in all cases: NCI anticancer screen, dose series, 48 h
[1] = tested on: UACC-62 melanoma
[2] = tested on: SK-OV-3 ovarian
[3] = tested on: DU-145 prostate
[4] = tested on: EKVX NSCLC
[5] = tested on: PC-3 prostate
[6] = tested on: U251 CNS
[7] = tested on: LOX IMVI melanoma
[8] = tested on: K-562 leukemia
[9] = tested on: COLO 205 colon
[10] = tested on: OVCAR-3 ovarian
[11] = tested on: SK-MEL-28 melanoma
[12] = tested on: A498 renal
[13] = tested on: SR leukemia
[14] = tested on: HCT-116 colon
[15] = tested on: CAKI-1 renal
[16] = tested on: TK-10 renal
[17] = tested on: MCF7 breast
[18] = tested on: NCI-H23 lung
[19] = tested on: HCT-15 colon
[20] = tested on: SNB-19 CNS
[21] = tested on: CCRF-CEM leukemia
[22] = tested on: MALME-3M melanoma
[23] = tested on: UO-31 renal
[24] = tested on: HOP-62 NSCLC
[25] = tested on: ACHN renal
[26] = tested on: RXF 393 renal
[27] = tested on: SK-MEL-5 melanoma
[28] = tested on: OVCAR-5 ovarian
[29] = tested on: NCI-H522 lung
[30] = tested on: MOLT-4 leukemia
[31] = tested on: M14 melanoma
[32] = tested on: HS 578T breast
[33] = tested on: SF-295 CNS
[34] = tested on: MDA-MB-231 breast
[35] = tested on: SN12C renal
[36] = tested on: MDA-MB-435
[37] = tested on: MDA-MB-468 breast
[38] = tested on: 786-0 renal
[39] = tested on: RPMI-8226 leukemia
[40] = tested on: SK-MEL-2 melanoma
[41] = tested on: T-47D breast
[42] = tested on: IGROV1 ovarian
[43] = tested on: SF-539 CNS
[44] = tested on: NCI-H460 lung
[45] = tested on: SW-620 colon
[46] = tested on: OVCAR-4 ovarian
[47] = tested on: HCC-2998 colon
[48] = tested on: NCI-H226 lung
[49] = tested on: HOP-92 NSCLC
[50] = tested on: SF-268 CNS
[51] = tested on: HL-60(TB) leukemia
[52] = tested on: A549 NSCLC
[53] = tested on: KM12 colon
[54] = tested on: HT29 colon
[55] = tested on: OVCAR-8 ovarian
[56] = tested on: SNB-75 CNS
[57] = tested on: NCI/ADR-RES ovarian
[58] = tested on: UACC-257 melanoma
[59] = tested on: BT-549 breast

For `Clc1ccc(CNc2nc(SCCN3CCOCC3)nc3c2cnn3CC(Cl)c2ccc(Br)cc2)cc1` (stereo not drawn), the GI50 [1] was 11.7 µM, the TGI [1] was > 100 µM and the GI50 [2] was > 100 µM. For the same molecule, the TGI [2] was > 100 µM, the GI50 [3] was 46.4 µM and the TGI [3] was > 100 µM. The GI50 [4] was 4.55 µM, the TGI [4] was > 100 µM and the GI50 [5] was 4.3 µM. The TGI [5] was > 100 µM, the GI50 [6] was 5.35 µM and the TGI [6] was > 100 µM. The GI50 [7] was 4.49 µM, the TGI [7] was > 100 µM and the GI50 [8] was 2.85 µM. For the same molecule, the TGI [8] was > 100 µM, the GI50 [9] was 5.71 µM and the TGI [9] was 32 µM. For the same molecule, the GI50 [10] was 9.59 µM, the TGI [10] was > 100 µM and the GI50 [11] was 14 µM. The TGI [11] was > 100 µM, the GI50 [12] was 54.1 µM and the TGI [12] was > 100 µM. It also gave a GI50 [13] of 1.68 µM, a TGI [13] of 5.63 µM and a GI50 [14] of 3.81 µM. For the same molecule, the TGI [14] was > 100 µM, the GI50 [15] was 5.45 µM and the TGI [15] was > 100 µM. The GI50 [16] was 31.9 µM, the TGI [16] was > 100 µM and the GI50 [17] was 3.45 µM. For the same molecule, the TGI [17] was > 100 µM, the GI50 [18] was 7.84 µM and the TGI [18] was > 100 µM. It also gave a GI50 [19] of 3.03 µM, a TGI [19] of 11 µM and a GI50 [20] of 8.34 µM. The TGI [20] was > 100 µM, the GI50 [21] was 3.85 µM and the TGI [21] was > 100 µM. The GI50 [22] was 3.94 µM, the TGI [22] was 28.9 µM and the GI50 [23] was 3.65 µM. For the same molecule, the TGI [23] was > 100 µM, the GI50 [24] was 63 µM and the TGI [24] was > 100 µM. For the same molecule, the GI50 [25] was 4.19 µM, the TGI [25] was > 100 µM and the GI50 [26] was 1.72 µM. It also gave a TGI [26] of 8.87 µM, a GI50 [27] of 7.66 µM and a TGI [27] of 21 µM. The GI50 [28] was > 100 µM, the TGI [28] was > 100 µM and the GI50 [29] was 6.17 µM. The TGI [29] was > 100 µM, the GI50 [30] was 2.62 µM and the TGI [30] was 8.27 µM. For the same molecule, the GI50 [31] was 6.01 µM, the TGI [31] was > 100 µM and the GI50 [32] was 9.59 µM. The TGI [32] was > 100 µM, the GI50 [33] was 3.91 µM and the TGI [33] was > 100 µM. The GI50 [34] was 9.03 µM, the TGI [34] was > 100 µM and the GI50 [35] was 6.14 µM. For the same molecule, the TGI [35] was > 100 µM, the GI50 [36] was 6.65 µM and the TGI [36] was > 100 µM. The GI50 [37] was 3.3 µM, the TGI [37] was 18.9 µM and the GI50 [38] was 5.62 µM. For the same molecule, the TGI [38] was > 100 µM, the GI50 [39] was 3.52 µM and the TGI [39] was > 100 µM. The GI50 [40] was 13 µM, the TGI [40] was 63.1 µM and the GI50 [41] was 3.05 µM. The TGI [41] was > 100 µM, the GI50 [42] was 65.4 µM and the TGI [42] was > 100 µM. For the same molecule, the GI50 [43] was 4.37 µM, the TGI [43] was > 100 µM and the GI50 [44] was 4.57 µM. The TGI [44] was > 100 µM, the GI50 [45] was 6.11 µM and the TGI [45] was 91.7 µM. The GI50 [46] was 5.3 µM, the TGI [46] was > 100 µM and the GI50 [47] was 4.4 µM. The TGI [47] was > 100 µM, the GI50 [48] was 5.68 µM and the TGI [48] was > 100 µM. The GI50 [49] was 8.71 µM, the TGI [49] was > 100 µM and the GI50 [50] was 7.43 µM. For the same molecule, the TGI [50] was > 100 µM, the GI50 [51] was 2.81 µM and the TGI [51] was 26.8 µM. The GI50 [52] was 4.18 µM, the TGI [52] was > 100 µM and the GI50 [53] was 5.39 µM. The TGI [53] was > 100 µM, the GI50 [54] was 1.91 µM and the TGI [54] was 4.04 µM. The GI50 [55] was 17.9 µM, the TGI [55] was > 100 µM and the GI50 [56] was 4.65 µM. For the same molecule, the TGI [56] was > 100 µM, the GI50 [57] was 4.14 µM and the TGI [57] was > 100 µM. For the same molecule, the GI50 [58] was 29.9 µM, the TGI [58] was > 100 µM and the GI50 [59] was 18.4 µM. It also gave a TGI [59] of 94.6 µM.
